Biological target: WDR5 (Homo sapiens, UniProt P61964)
Assay: Screening of putative WDR5 degraders by Western blot in MV4;11 and/or MIAPACA2 cells
Assay type: cell-based
Set-up: After WDR5 degrader treatment, cells were collected and lysed; endogenous in cells; host or cells: MV4;11 and/or MIAPACA2
Details: summary of screening, FIGS. 6-10
Experimental: MV4;11 cells were treated with DMSO or indicated compounds at 0.1 μM and 0.5 μM for 18 hours. […]. MIAPACA2 cells were treated with DMSO or indicated compounds at 0.5 μM and 1.0 μM for 18 hours.
MIAPACA2 cells were treated with DMSO or indicated compounds at 0.1 μM and 0.5 μM for 18 hours.
MIAPACA2 cells were treated with DMSO or indicated compounds at 0.5 μM and 1.0 μM or at 1.0 μM and 10 μM for 18 hours.
MV4;11 cells were treated with DMSO or indicated compounds at 0.1 μM and 1.0 μM for 18 hours.
WDR5 degraders were dissolved in DMSO and DMSO with no degraders was used as the control. 1×10^6 MV4;11 cells or 1×10^5 MIAPACA2 or 2×10^5 Hela cells were seeded in 2 mL medium for each well in […].
For prescreening of all the compounds, each test compound was added to the medium at indicated concentrations. After 18 h treatment, cells were collected.
After WDR5 degrader treatment, cells were collected and lysed. Total cell lysates were used for western blot. The following primary antibodies were used: WDR5 (Santa Cruz), vinculin (Cell Signaling Technology), tubulin (Cell Signaling Technology), GAPDH (Santa Cruz). Blots were imaged using fluorescence-labeled secondary antibodies on ChemiDoc™ Imaging Systems.

effective degradation of WDR5 in MV4;11 and/or MIAPACA2 cells	Compound
able to effectively degrade WDR5	CN1CCN(c2ccc(-c3cccc(CN4CCN(CCNC(=O)CCCCCCCOc5cccc6c5C(=O)N(C5CCC(=O)NC5=O)C6=O)CC4)c3)cc2NC(=O)c2c[nH]c(=O)cc2C(F)(F)F)CC1 (centres unmarked) [XF056-39, N-(3′-((4-(2-(8-((2-(2,6-dioxopiperidin-3-yl)-1,3-dioxoisoindolin-4-yl)oxy)octanamido)ethyl)piperazin-1-yl)methyl)-4-(4-methylpiperazin-1-yl)-[1,1′-biphenyl]-3-yl)-6-oxo-4-(trifluoromethyl)-1,6-dihydropyridine-3-carboxamide]
able to effectively degrade WDR5	Cc1ncsc1-c1ccc(CNC(=O)[C@@H]2C[C@@H](O)CN2C(=O)[C@@H](NC(=O)CCCCCCCNC(=O)c2ccc(-c3ccc(N4C[C@@H](C)N(C)[C@@H](C)C4)c(NC(=O)c4c[nH]c(=O)cc4C(F)(F)F)c3)c(F)c2)C(C)(C)C)cc1 [XF056-171, N-(2′-fluoro-4′-((8-(((S)-1-((2S,4R)-4-hydroxy-2-((4-(4-methylthiazol-5-yl)benzyl)carbamoyl)pyrrolidin-1-yl)-3,3-dimethyl-1-oxobutan-2-yl)amino)-8-oxooctyl)carbamoyl)-4-((3R,5S)-3,4,5-trimethylpiperazin-1-yl)-[1,1′-biphenyl]-3-yl)-6-oxo-4-(trifluoromethyl)-1,6-dihydropyridine-3-carboxamide]
able to effectively degrade WDR5	C[C@@H]1CN(c2ccc(-c3ccc(C(=O)NCCCCCCCCNc4cccc5c4C(=O)N(C4CCC(=O)NC4=O)C5=O)cc3F)cc2NC(=O)c2c[nH]c(=O)cc2C(F)(F)F)C[C@H](C)N1C (stereo partly drawn) [XF056-186, N-(4′-((8-((2-(2,6-dioxopiperidin-3-yl)-1,3-dioxoisoindolin-4-yl)amino)octyl)carbamoyl)-2′-fluoro-4-((3R,5S)-3,4,5-trimethylpiperazin-1-yl)-[1,1′-biphenyl]-3-yl)-6-oxo-4-(trifluoromethyl)-1,6-dihydropyridine-3-carboxamide]
able to effectively degrade WDR5	Cc1ncsc1-c1ccc(CNC(=O)[C@@H]2C[C@@H](O)CN2C(=O)[C@@H](NC(=O)CCCCCCCCCC(=O)N2CCN(c3ccc(-c4cc(NC(=O)c5c[nH]c(=O)cc5C(F)(F)F)c(N5C[C@@H](C)N(C)[C@@H](C)C5)cc4F)cn3)CC2)C(C)(C)C)cc1 [XF067-133, N-(4-fluoro-5-(6-(4-(11-(((S)-1-((2S,4R)-4-hydroxy-2-((4-(4-methylthiazol-5-yl)benzyl)carbamoyl)pyrrolidin-1-yl)-3,3-dimethyl-1-oxobutan-2-yl)amino)-11-oxoundecanoyl)piperazin-1-yl)pyridin-3-yl)-2-((3S,5R)-3,4,5-trimethylpiperazin-1-yl)phenyl)-6-oxo-4-(trifluoromethyl)-1,6-dihydropyridine-3-carboxamide]

Further lines, the compound ahead of its results:

Compound	effective degradation of WDR5 in MV4;11 and/or MIAPACA2 cells
Cc1ncsc1-c1ccc(CNC(=O)[C@@H]2C[C@@H](O)CN2C(=O)[C@@H](NC(=O)CCCCCCCCCCCC(=O)NCCN2CCN(Cc3cccc(-c4ccc(N5CCN(C)CC5)c(NC(=O)c5c[nH]c(=O)cc5C(F)(F)F)c4)c3)CC2)C(C)(C)C)cc1 [XF050-161, N^1-((S)-1-((2S,4R)-4-hydroxy-2-((4-(4-methylthiazol-5-yl)benzyl)carbamoyl)pyrrolidin-1-yl)-3,3-dimethyl-1-oxobutan-2-yl)-N^13-(2-(4-((4′-(4-methylpiperazin-1-yl)-3′-(6-oxo-4-(trifluoromethyl)-1,6-dihydropyridine-3-carboxamido)-[1,1′-biphenyl]-3-yl)methyl)piperazin-1-yl)ethyl)tridecanediamide]	able to effectively degrade WDR5
Cc1ncsc1-c1ccc(CNC(=O)[C@@H]2C[C@@H](O)CN2C(=O)[C@@H](NC(=O)CCCCCCCCCCCCC(=O)NCCN2CCN(Cc3cccc(-c4ccc(N5CCN(C)CC5)c(NC(=O)c5c[nH]c(=O)cc5C(F)(F)F)c4)c3)CC2)C(C)(C)C)cc1 [XF050-162, N^1-((S)-1-((2S,4R)-4-hydroxy-2-((4-(4-methylthiazol-5-yl)benzyl)carbamoyl)pyrrolidin-1-yl)-3,3-dimethyl-1-oxobutan-2-yl)-N^14-(2-(4-((4′-(4-methylpiperazin-1-yl)-3′-(6-oxo-4-(trifluoromethyl)-1,6-dihydropyridine-3-carboxamido)-[1,1′-biphenyl]-3-yl)methyl)piperazin-1-yl)ethyl)tetradecanediamide]	able to effectively degrade WDR5
Cc1ncsc1-c1ccc([C@H](C)NC(=O)[C@@H]2C[C@@H](O)CN2C(=O)[C@@H](NC(=O)CCCCCCCCCC(=O)N2CCN(c3ccc(-c4cc(NC(=O)c5c[nH]c(=O)cc5C(F)(F)F)c(N5C[C@@H](C)N(C)[C@@H](C)C5)cc4F)cn3)CC2)C(C)(C)C)cc1 [XF067-134, N-(4-fluoro-5-(6-(4-(11-(((S)-1-((2S,4R)-4-hydroxy-2-(((S)-1-(4-(4-methylthiazol-5-yl)phenyl)ethyl)carbamoyl)pyrrolidin-1-yl)-3,3-dimethyl-1-oxobutan-2-yl)amino)-11-oxoundecanoyl)piperazin-1-yl)pyridin-3-yl)-2-((3S,5R)-3,4,5-trimethylpiperazin-1-yl)phenyl)-6-oxo-4-(trifluoromethyl)-1,6-dihydropyridine-3-carboxamide]	able to effectively degrade WDR5
Cc1ncsc1-c1ccc(CNC(=O)[C@@H]2C[C@@H](O)CN2C(=O)[C@@H](NC(=O)COCCNC(=O)CCC(=O)N2CCN(c3ccc(-c4cc(NC(=O)c5c[nH]c(=O)cc5C(F)(F)F)c(N5C[C@@H](C)N(C)[C@@H](C)C5)cc4F)cn3)CC2)C(C)(C)C)cc1 [XF067-140, N-(4-fluoro-5-(6-(4-(4-((2-(2-(((S)-1-((2S,4R)-4-hydroxy-2-((4-(4-methylthiazol-5-yl)benzyl)carbamoyl)pyrrolidin-1-yl)-3,3-dimethyl-1-oxobutan-2-yl)amino)-2-oxoethoxy)ethyl)amino)-4-oxobutanoyl)piperazin-1-yl)pyridin-3-yl)-2-((3S,5R)-3,4,5-trimethylpiperazin-1-yl)phenyl)-6-oxo-4-(trifluoromethyl)-1,6-dihydropyridine-3-carboxamide]	able to effectively degrade WDR5
Cc1ncsc1-c1ccc(CNC(=O)[C@@H]2C[C@@H](O)CN2C(=O)[C@@H](NC(=O)COCCOCCNC(=O)CCC(=O)N2CCN(c3ccc(-c4cc(NC(=O)c5c[nH]c(=O)cc5C(F)(F)F)c(N5C[C@@H](C)N(C)[C@@H](C)C5)cc4F)cn3)CC2)C(C)(C)C)cc1 [XF067-142, N-(4-fluoro-5-(6-(4-((S)-3-((2S,4R)-4-hydroxy-2-((4-(4-methylthiazol-5-yl)benzyl)carbamoyl)pyrrolidine-1-carbonyl)-2,2-dimethyl-5,14-dioxo-7,10-dioxa-4,13-diazaheptadecan-17-oyl)piperazin-1-yl)pyridin-3-yl)-2-((3S,5R)-3,4,5-trimethylpiperazin-1-yl)phenyl)-6-oxo-4-(trifluoromethyl)-1,6-dihydropyridine-3-carboxamide]	able to effectively degrade WDR5
Cc1ncsc1-c1ccc(CNC(=O)[C@@H]2C[C@@H](O)CN2C(=O)[C@@H](NC(=O)CCOCCOCCOCCOCCNC(=O)CCC(=O)N2CCN(c3ccc(-c4cc(NC(=O)c5c[nH]c(=O)cc5C(F)(F)F)c(N5C[C@@H](C)N(C)[C@@H](C)C5)cc4F)cn3)CC2)C(C)(C)C)cc1 [XF067-146, N-(4-fluoro-5-(6-(4-((S)-3-((2S,4R)-4-hydroxy-2-((4-(4-methylthiazol-5-yl)benzyl)carbamoyl)pyrrolidine-1-carbonyl)-2,2-dimethyl-5,21-dioxo-8,11,14,17-tetraoxa-4,20-diazatetracosan-24-oyl)piperazin-1-yl)pyridin-3-yl)-2-((3S,5R)-3,4,5-trimethylpiperazin-1-yl)phenyl)-6-oxo-4-(trifluoromethyl)-1,6-dihydropyridine-3-carboxamide]	able to effectively degrade WDR5
Cc1ncsc1-c1ccc(CNC(=O)[C@@H]2C[C@@H](O)CN2C(=O)[C@@H](NC(=O)COCC(=O)NCCN2CCN(Cc3ccc(F)c(-c4ccc(N5C[C@@H](C)N(C)[C@@H](C)C5)c(NC(=O)c5c[nH]c(=O)cc5C(F)(F)F)c4)c3)CC2)C(C)(C)C)cc1 [XF078-1, N-(2′-fluoro-5′-((4-(2-(2-(2-(((S)-1-((2S,4R)-4-hydroxy-2-((4-(4-methylthiazol-5-yl)benzyl)carbamoyl)pyrrolidin-1-yl)-3,3-dimethyl-1-oxobutan-2-yl)amino)-2-oxoethoxy)acetamido)ethyl)piperazin-1-yl)methyl)-4-((3S,5R)-3,4,5-trimethylpiperazin-1-yl)-[1,1′-biphenyl]-3-yl)-6-oxo-4-(trifluoromethyl)-1,6-dihydropyridine-3-carboxamide]	able to effectively degrade WDR5
